Laboratory results published in publication PMC10010643 (Cancer Chemotherapy and Pharmacology, 2023).
Like-named read-outs stand apart in the source and are kept apart here.

What was measured:
human macrophages = tested on: human macrophages; design: method as in PMID 36154172; conditions: in vitro; cited from earlier work
[1] = tested on: human liver stellate cell line; design: method as in PMID 36154172; conditions: in vitro; cited from earlier work
[2] = tested on: programmed cell death protein 1 and PD-L1; conditions: pembrolizumab and atezolizumab; cited from earlier work
[3] = Plasma PK, Part B multiple oral BID doses in healthy participants; assay type: in vivo, human; conditions: for concentration at 12 h / AUC / Cmax / Tmax / half-life / Vd/F: human, plasma, oral; for concentration at 12 h: read-out: Trough (12 h post-dose) concentration (Cmin), geometric mean (range); for AUC: read-out: AUC0-τ, geometric mean (CV%); for Cmax: read-out: Cmax, geometric mean (CV%); for half-life: read-out: t½, arithmetic mean (SD) (converted); for Vd/F: read-out: Vz/F, geometric mean (CV%)
Method: Following review of safety, tolerability, and PK data from cohorts A1–A6, participants received twice-daily doses (BID) under fasted conditions on days 1–9 and a final single dose in the morning of day 10. […] There was one treatment period and all participants stayed at the CRU from day − 1 until the morning of day 11 (24 h after the final dose on day 10). All were to return for a follow-up visit 5–7 days after their final dose.
Blood samples (4 mL) were collected in K3 EDTA tubes by venipuncture or cannulation. In Part A, samples were taken pre-dose and at 0.5, 1, 1.5, 2, 3, 4, 6, 8, 12, 16, 24, 36 and 48 h post-dose. In part B, samples were taken pre-dose on days 1 (pre-AM dose) and 10 (pre-final dose) and at 0.5, 1, 1.5, 2, 3, 4, 6, 8 and 12 h post-AM dose for day 1 and post-final dose for day 10. Samples were also taken on days 4–9 pre-AM dose, on day 11 at 24 and 36 h post-final dose, and on day 12 at 48 h post-final dose. Blood samples were centrifuged at 1500 g for 10 min at […] and split into two plasma aliquots.
Urine was collected by spot collection in Part A only before dosing and between 0–6, 6–12, 12–24, and 24–48 h post-dose. Blood and urine aliquots were stored in polypropylene tubes at − 70 °C until bioanalysis.
In Part B, the plasma PK parameters included AUC over a dosing interval (AUC0–τ), AUC0–∞, Cmax, Tmax, t½, minimum observed plasma concentration (Cmin), observed accumulation ratio based on AUC0–τ (RAAUC0–τ) and observed accumulation ratio based on Cmax (RACmax). Further details can be found in the Supplementary materials.
Dose proportionality was analyzed for exposure parameters after fasted doses. The power model was used on AUC0–∞, AUC0–tlast, and Cmax on day 1 in Part A. Data were analyzed over two dose ranges: 50–400 mg (50 mg capsules) and 5–50 mg (5 mg capsules). An analysis of variance was used on AUC0–τ and Cmax on day 10 in Part B. The effect of food on AUC0–∞, AUC0–tlast, and Cmax at 50 mg in Part A was investigated using a mixed model which included treatment as a fixed effect and subject as a random effect.

[4] = Fraction of unbound GB1211 in plasma; assay type: in vitro ADME; conditions: human
[5] = 50 mg, 50 mg BID, fasted, Day 1
[6] = 50 mg, 50 mg BID, fasted, Day 10
[7] = 100 mg, 100 mg BID, fasted, Day 1
[8] = 100 mg, 100 mg BID, fasted, Day 10

SMILES: OC[C@H]1O[C@H](Sc2cncc(Br)c2)[C@H](O)[C@@H](n2cc(-c3cc(F)c(F)c(F)c3)nn2)[C@H]1O [GB1211]
- Galectin-3 expression on human macrophages (human macrophages): potently inhibited galectin-3 expression
- TGFβ-induced fibrosis gene expression [1]: inhibiting TGFβ-induced fibrosis gene expression
- Galectin-3-induced inhibition of immune checkpoint inhibitor binding [2]: reverses
- CL/F, geometric mean (CV%) ([3]; 50 mg BID, fasted, Day 10): 9.75 (29.0) L/h
- Cmin, geometric mean (CV%) ([3]; 50 mg BID, fasted, Day 10): 249 (26.2) ng/mL
- CL/F, geometric mean (CV%) ([3]; 100 mg BID, fasted, Day 10): 13.3 (21.1) L/h
- Cmin, geometric mean (CV%) ([3]; 100 mg BID, fasted, Day 10): 338 (27.5) ng/mL
- t½, arithmetic mean (SD) ([3]; 100 mg BID, fasted, Day 10): 13.1 (2.65) h
- Dose proportionality of AUC0–τ and Cmax ([3]; 50 and 100 mg BID, day 10): sub-proportional manner
- Time to steady-state after the start of the BID multiple-dosing period ([3]; by the morning of day 3): 48 h
- concentration at 12 h ([3]; 50 mg BID, day 10): 249 ng/mL
- AUC [3, 5]: 2220 ng·h/mL
- Cmax [3, 5]: 330 ng/mL
- Tmax ([3]; 50 mg, 50 mg BID, fasted, Day 1, read-out: Tmax, median (min–max)): 4 h
- AUC [3, 6]: 5130 ng·h/mL
- Cmax [3, 6]: 658 ng/mL
- Tmax ([3]; 50 mg, 50 mg BID, fasted, Day 10, read-out: Tmax, median (min–max)): 2.5 h
- half-life [3, 6]: ~21.4 h
- concentration at 12 h ([3]; 100 mg BID, day 10): 338 ng/mL
- AUC [3, 7]: 3560 ng·h/mL
- Cmax [3, 7]: 546 ng/mL
- Tmax ([3]; 100 mg, 100 mg BID, fasted, Day 1, read-out: Tmax, median (min–max)): 3 h
- AUC [3, 8]: 7530 ng·h/mL
- Cmax [3, 8]: 975 ng/mL
- Tmax ([3]; 100 mg, 100 mg BID, fasted, Day 10, read-out: Tmax, median (min–max)): 3 h
- half-life [3, 8]: ~13.1 h
- Tmax ([3]; multiple BID doses, days 1 and 10, read-out: Median Tmax, range): 2.5 to 4 h
- Vd/F ([3]; 50 mg BID, fasted, Day 10): 311 L
- Vd/F ([3]; 100 mg BID, fasted, Day 10): 248 L
- Accumulation in plasma with multiple dosing ([3]; multiple BID oral dosing): ~ twofold
- Time to steady-state ([3]; multiple BID oral dosing): ≤ 3 days
- fraction unbound [4]: 0.0534
